Experimental data: patent US20210181179A1, “DIAGNOSIS AND TREATMENT OF IMMUNOTHERAPY-INDUCED NEUROTOXICITY” (MEMORIAL SLOAN KETTERING CANCER CENTER, priority 2018, published 2021)

Assays:
[1] = test system: adult patients with CD19+B-ALL; test: Management of neurotoxicity and CRS (tocilizumab, corticosteroid, seizure prophylaxis) in the 19-28z CAR T cell trial; type: in vivo, human; conditions: seizure prophylaxis
From the text: The anti-IL-6 receptor monoclonal antibody, tocilizumab, with or without corticosteroid is often used to mitigate CRS and neurotoxicity. Six (18%) of 33 patients with neurotoxicity received tocilizumab alone; 14 (42%) received tocilizumab plus corticosteroid; 4 (12%) received corticosteroid alone; and 9 (27%) received neither tocilizumab nor corticosteroid (FIG. 6/Supplementary Fig. S1). In the 16 patients with severe neurotoxicity who received tocilizumab, 9 (56.3%) had peak neurotoxicity after the first dose of tocilizumab whereas 7 (43.7%) had peak neurotoxicity prior to or on the day of tocilizumab administration. […] The time from first tocilizumab and/or steroid dose to resolution of neurotoxicity (median, 9 days; range 4-21 days) was longer than the time to resolution of CRS (median, 1 day; range 0-3 days; P<0.001), confirming previous findings that neurotoxicity is less responsive than CRS to these treatment interventions.
Toxicity assessment: CRS was graded according to the MSKCC CRS grading system. Severe CRS was defined as ≥grade 3. Neurotoxicity was prospectively graded according to National Cancer Institute common terminology criteria for adverse events (CTCAE) v4.03 by the principal investigator (P). An independent retrospective review of the electronic medical record was performed by a neurologist (BS) who assigned daily neurotoxicity grades to the AE terms according to CTCAE v4.03. Discrepancies were adjudicated by consensus review. All patients developing neurologic symptoms were evaluated by the neurology consult service and followed with daily neurologic assessments until neurologic symptom resolution. Severe neurotoxicity was defined as ≥grade 3 toxicity with the exception that any seizure (including grade 1 or 2 by CTCAE criteria) was included as severe neurotoxicity.

CCF-STTG1 (astrocytoma) = test: Net production of TRP metabolites in media samples, CCF-STTG1; type: cell-based, human
From the text: (§1) Under physiological conditions in the brain, kynurenine metabolism is driven by microglial cells and astrocytes with preferential production of QUIN and KA respectively. […] This may have been due to T cells producing cytokines and/or intermediate metabolites that are further metabolized to QUIN by the cells. In order to identify specific factors that may lead to tryptophan-kynurenine pathway up-regulation for QUIN production, we tested a panel of cytokine and chemokines implicated in NTX and CRS. […] We initially evaluated the panel of the select factors individually (FIGS. 16 A-B). We selected several cytokines based on their effect on rate-limiting enzymes for QUIN production. These included IFNγ, TNF, […], CXCL10 and […]. These enzymes were selected based on their regulation of key enzymes, KMO and KYNU, which may lead to supraphysiological accumulation of QUIN. These factors were further evaluated, individually or in combination, on astrocytoma, microglial, and primary monocyte-derived macrophages for mRNA levels of kynurenine pathway enzymes and kynurenine metabolites production (FIG. 17).

DOAY (medulloblastoma) = test: Net production of TRP metabolites in media samples, DOAY; type: cell-based
HCN2 (cortical neuron) = test: Net production of TRP metabolites in media samples, HCN2; type: cell-based
HMC3 (microglia) = test: Net production of TRP metabolites in media samples, HMC3; type: cell-based, human
From the text: as §1

THP-1 (monocyte) = test: Net production of TRP metabolites in media samples, THP-1; type: cell-based
ALL3.1 (B-ALL) = test: Net production of TRP metabolites in media samples, ALL3.1; type: cell-based
BV173 (B-ALL) = test: Net production of TRP metabolites in media samples, BV173; type: cell-based
CCRF-SB (B-ALL) = test: Net production of TRP metabolites in media samples, CCRF-SB; type: cell-based
KARPAS231 (B-ALL) = test: Net production of TRP metabolites in media samples, KARPAS231; type: cell-based
RS4; 11 (B-ALL) = test: Net production of TRP metabolites in media samples, RS4; 11; type: cell-based
SUP-B15 (B-ALL) = test: Net production of TRP metabolites in media samples, SUP-B15; type: cell-based

In the case of `CC[C@@H](C(N)=O)N1CCCC1=O` [levetiracetam], the “patients who developed seizure despite levetiracetam prophylaxis” value [1] is reported as 14 patients.

With Il6: cytokine the “Net production of TRP metabolites in media samples: 3-HK” value (shortened to “Net production … 3-HK”) (CCF-STTG1 (astrocytoma)) was −8.16 ± 2.2, the “Net production of TRP metabolites in media samples: HAA” value (“Net production … HAA” for short) (CCF-STTG1 (astrocytoma)) was 11 ± 0.4 and the “Net production of TRP metabolites in media samples: KA” value (shortened to “Net production … KA”) (CCF-STTG1 (astrocytoma)) was 5.16 ± 1.1. The “Net production of TRP metabolites in media samples: KYN” value (shortened to “Net production … KYN”) (CCF-STTG1 (astrocytoma)) was 4385.94 ± 43.3, the “Net production of TRP metabolites in media samples: QUIN” value (“Net production … QUIN” below) (CCF-STTG1 (astrocytoma)) was 17.06 ± 11^ and the “Net production … 3-HK” value (DOAY (medulloblastoma)) was −11.68 ± 1.2. For the same compound, the “Net production … HAA” value (DOAY (medulloblastoma)) was 11.14 ± 0.8, the “Net production … KA” value (DOAY (medulloblastoma)) was 6.16 ± 4.2 and the “Net production … KYN” value (DOAY (medulloblastoma)) was 41.5 ± 21.6. The “Net production … QUIN” value (DOAY (medulloblastoma)) was 29.66 ± 29.4, the “Net production … 3-HK” value (HCN2 (cortical neuron)) was 4.96 ± 0.8 and the “Net production … HAA” value (HCN2 (cortical neuron)) was 5.48 ± 0.8. For the same compound, the “Net production … KA” value (HCN2 (cortical neuron)) was 0.86 ± 2.1, the “Net production … KYN” value (HCN2 (cortical neuron)) was −2.08 ± 19^ and the “Net production … QUIN” value (HCN2 (cortical neuron)) was 0.94 ± 12.9. For the same compound, the “Net production … 3-HK” value (HMC3 (microglia)) was 8.44 ± 18, the “Net production … HAA” value (HMC3 (microglia)) was 0.12 ± 2.4 and the “Net production … KA” value (HMC3 (microglia)) was 6.3 ± 3.8. The “Net production … KYN” value (HMC3 (microglia)) was 545.08 ± 313^, the “Net production … QUIN” value (HMC3 (microglia)) was 61.04 ± 23.7 and the “Net production … 3-HK” value (THP-1 (monocyte)) was 0.5 ± 1.2. For the same compound, the “Net production … KA” value (THP-1 (monocyte)) was −6.74 ± 6.2, the “Net production … KYN” value (THP-1 (monocyte)) was 176.36 ± 33 and the “Net production … QUIN” value (THP-1 (monocyte)) was −5.14 ± 52.9. The “Net production … 3-HK” value (ALL3.1 (B-ALL)) was 1.48 ± 5.3, the “Net production … KA” value (ALL3.1 (B-ALL)) was −2.36 ± 6^ and the “Net production … KYN” value (ALL3.1 (B-ALL)) was 95.16 ± 123.3. The “Net production … QUIN” value (ALL3.1 (B-ALL)) was 8.66 ± 36.5, the “Net production … 3-HK” value (BV173 (B-ALL)) was 12.32 ± 11.8 and the “Net production … KA” value (BV173 (B-ALL)) was −3 ± 3. The “Net production … KYN” value (BV173 (B-ALL)) was 244.92 ± 172.4, the “Net production … QUIN” value (BV173 (B-ALL)) was 13.06 ± 15.6 and the “Net production … 3-HK” value (CCRF-SB (B-ALL)) was 27.64 ± 22.5. For the same compound, the “Net production … HAA” value (CCRF-SB (B-ALL)) was 9.34 ± 2.1, the “Net production … KA” value (CCRF-SB (B-ALL)) was −6.88 ± 1.5 and the “Net production … KYN” value (CCRF-SB (B-ALL)) was 438.12 ± 308.6. For the same compound, the “Net production … QUIN” value (CCRF-SB (B-ALL)) was −51.14 ± 13 ^, the “Net production … 3-HK” value (KARPAS231 (B-ALL)) was 1.48 ± 2.2 and the “Net production … HAA” value (KARPAS231 (B-ALL)) was 8.68 ± 1.5. The “Net production … KA” value (KARPAS231 (B-ALL)) was −7.58 ± 4.2, the “Net production … KYN” value (KARPAS231 (B-ALL)) was −77.44 ± 27.4 and the “Net production … QUIN” value (KARPAS231 (B-ALL)) was −37.78 ± 29.5. The “Net production … 3-HK” value (RS4; 11 (B-ALL)) was −1.36 ± 1.1, the “Net production … KA” value (RS4; 11 (B-ALL)) was −6.52 ± 2.3 and the “Net production … KYN” value (RS4; 11 (B-ALL)) was −3.36 ± 38.7. The “Net production … QUIN” value (RS4; 11 (B-ALL)) was 16.28 ± 63.8, the “Net production … 3-HK” value (SUP-B15 (B-ALL)) was 16.58 ± 13.5 and the “Net production … HAA” value (SUP-B15 (B-ALL)) was 6.44 ± 0.8. For the same compound, the “Net production … KA” value (SUP-B15 (B-ALL)) was −6.4 ± 3, the “Net production … KYN” value (SUP-B15 (B-ALL)) was 309 ± 182 and the “Net production … QUIN” value (SUP-B15 (B-ALL)) was −65.6 ± 16^.

In the case of TNFα, the “Net production … 3-HK” value (CCF-STTG1 (astrocytoma)) is reported as −9.8 ± 2.6, the “Net production … HAA” value (CCF-STTG1 (astrocytoma)) is reported as 10.74 ± 0.9 and the “Net production … KA” value (CCF-STTG1 (astrocytoma)) is reported as 1.36 ± 0.5. The “Net production … KYN” value (CCF-STTG1 (astrocytoma)) was 2853.38 ± 129.6, the “Net production … QUIN” value (CCF-STTG1 (astrocytoma)) was 12.92 ± 4 and the “Net production … 3-HK” value (DOAY (medulloblastoma)) was −8.84 ± 1.2. The “Net production … HAA” value (DOAY (medulloblastoma)) was 10.14 ± 0.8, the “Net production … KA” value (DOAY (medulloblastoma)) was 4.52 ± 0.7 and the “Net production … KYN” value (DOAY (medulloblastoma)) was 35.94 ± 12.9. The “Net production … QUIN” value (DOAY (medulloblastoma)) was 19.86 ± 7.1, the “Net production … 3-HK” value (HCN2 (cortical neuron)) was 4.82 ± 1.9 and the “Net production … HAA” value (HCN2 (cortical neuron)) was 4.52 ± 0.3. The “Net production … KA” value (HCN2 (cortical neuron)) was 1.56 ± 1.5, the “Net production … KYN” value (HCN2 (cortical neuron)) was 5.4 ± 10 and the “Net production … QUIN” value (HCN2 (cortical neuron)) was 8.44 ± 12.2. The “Net production … 3-HK” value (HMC3 (microglia)) was 7.44 ± 18, the “Net production … HAA” value (HMC3 (microglia)) was −2.14 ± 0.45 and the “Net production … KA” value (HMC3 (microglia)) was 3.38 ± 2.9. The “Net production … KYN” value (HMC3 (microglia)) was 506.02 ± 251^, the “Net production … QUIN” value (HMC3 (microglia)) was 52.84 ± 27.6 and the “Net production … 3-HK” value (THP-1 (monocyte)) was 0.82 ± 1.5. The “Net production … KA” value (THP-1 (monocyte)) was −9.9 ± 5, the “Net production … KYN” value (THP-1 (monocyte)) was 298.62 ± 61.8 and the “Net production … QUIN” value (THP-1 (monocyte)) was 16.24 ± 51.4. For the same compound, the “Net production … 3-HK” value (ALL3.1 (B-ALL)) was 6.26 ± 7.3, the “Net production … KA” value (ALL3.1 (B-ALL)) was −4.56 ± 5.5 and the “Net production … KYN” value (ALL3.1 (B-ALL)) was 76.98 ± 139.6. The “Net production … QUIN” value (ALL3.1 (B-ALL)) was −13.1 ± 32.3, the “Net production … 3-HK” value (BV173 (B-ALL)) was 10.36 ± 9.9 and the “Net production … KA” value (BV173 (B-ALL)) was −3.16 ± 2.1. The “Net production … KYN” value (BV173 (B-ALL)) was 216.84 ± 141.1 ™, the “Net production … QUIN” value (BV173 (B-ALL)) was −8.44 ± 48.4 and the “Net production … 3-HK” value (CCRF-SB (B-ALL)) was 28.96 ± 22.5. For the same compound, the “Net production … HAA” value (CCRF-SB (B-ALL)) was 11.34 ± 3.9, the “Net production … KA” value (CCRF-SB (B-ALL)) was −9.3 ± 4.7 and the “Net production … KYN” value (CCRF-SB (B-ALL)) was 361.62 ± 256.4. For the same compound, the “Net production … QUIN” value (CCRF-SB (B-ALL)) was −70.3 ± 30.4, the “Net production … 3-HK” value (KARPAS231 (B-ALL)) was 4.94 ± 3.4 and the “Net production … HAA” value (KARPAS231 (B-ALL)) was 14.18 ± 4.6. For the same compound, the “Net production … KA” value (KARPAS231 (B-ALL)) was −7.72 ± 36.9, the “Net production … KYN” value (KARPAS231 (B-ALL)) was −72.84 ± 36.9 and the “Net production … QUIN” value (KARPAS231 (B-ALL)) was −44.96 ± 36.3. For the same compound, the “Net production … 3-HK” value (RS4; 11 (B-ALL)) was −0.34 ± 1.9, the “Net production … KA” value (RS4; 11 (B-ALL)) was −5.46 ± 5.7 and the “Net production … KYN” value (RS4; 11 (B-ALL)) was 4.38 ± 25.2. The “Net production … QUIN” value (RS4; 11 (B-ALL)) was 42.26 ± 39^, the “Net production … 3-HK” value (SUP-B15 (B-ALL)) was 17.56 ± 14^ and the “Net production … HAA” value (SUP-B15 (B-ALL)) was 6.58 ± 0.8. The “Net production … KA” value (SUP-B15 (B-ALL)) was −9.16 ± 3^, the “Net production … KYN” value (SUP-B15 (B-ALL)) was 303.8 ± 191 and the “Net production … QUIN” value (SUP-B15 (B-ALL)) was −67.3 ± 23^.
